Results reported in patent US20050250677A1, “Glycopeptide antibiotic derivatives” (priority 2002, published 2005).

Legend:
[1] = system: murine leukemia L1210; assay: Cytostatic activity assay, L1210 cells; assay type: cell-based; details: read-out: IC50 L1210 (compound concentration required to inhibit tumor cell proliferation by 50%)
[2] = system: human lymphocyte CEM; assay: Cytostatic activity assay, CEM cells; assay type: cell-based; details: read-out: IC50 CEM (compound concentration required to inhibit tumor cell proliferation by 50%)
[3] = system: HIV-2(ROD); assay: Inhibition of HIV-2 (ROD)-induced cytopathicity (giant cell formation) in CEM cells; assay type: cell-based; details: read-out: EC50 HIV-2 (concentration required to inhibit HIV-induced giant cell formation by 50%); HIV-2, CEM cell cultures
Experimental: (§1) A variety of glycopeptide antibiotic derivatives of vancomycin, eremomycin and teicoplanin including their aglycon derivatives were evaluated for their inhibitory activity against HIV-1 (IIIB) and HIV-2(ROD) in CEM cell cultures.

[4] = system: HIV-1 (IIIB); assay: Inhibition of HIV-1 (IIIB)-induced cytopathicity (giant cell formation) in CEM cells; assay type: cell-based
Experimental: as §1

[5] = system: human lymphocyte Molt4/clone 8; assay: Cytostatic activity assay, Molt4/clone 8 cells; assay type: cell-based; details: read-out: IC50 Molt4/C8 (compound concentration required to inhibit tumor cell proliferation by 50%)
[6] = system: HIV; assay: Selection of resistant HIV strains in cell culture; assay type: cell-based; details: ≧9 weeks of attempts in cell culture
[7] = system: mutant HIV-1 strain Tyr-181-Cys; assay: Anti-HIV-1 activity against mutant HIV-1 strain Tyr-181-Cys in CEM cultures; assay type: cell-based
[8] = system: mutant HIV-1 strain Leu-100-Ile; assay: Anti-HIV-1 activity against mutant HIV-1 strain Leu-100-Ile in CEM cultures; assay type: cell-based
[9] = system: Vero cells; details: read-out: CC50 Vero
[10] = system: HIV-1 (MN); assay: Inhibition of HIV-1 (MN)-induced cytopathicity in CEM/0 cells; assay type: cell-based
[11] = system: SARS virus (strain Frankfurt-1); assay: microbe, parasite or virus in culture; assay type: cell-based, human corona (SARS) virus; details: SARS virus in Vero cells; read-out: EC50 SARS virus
[12] = system: mutant HIV-1 strain Lys-103-Asn; assay: Anti-HIV-1 activity against mutant HIV-1 strain Lys-103-Asn in CEM cultures; assay type: cell-based
[13] = system: mutant HIV-1 strain Tyr-188-His; assay: Anti-HIV-1 activity against mutant HIV-1 strain Tyr-188-His in CEM cultures; assay type: cell-based
Experimental: (§2) Inhibition of HIV-1 (IIIB, HE, HN) and HIV-2(ROD, EHO, RF)-induced cytopathicity in CEM or C8166 or Molt4/C8 cells was measured in microtiter 96-well plates containing ˜3×10^5 CEM cells/ml, infected with 100 CCID50 of HIV per ml and containing appropriate dilutions of the test compounds. After 4 to 5 days of incubation at 37° C. in a CO2-controlled humidified atmosphere, CEM, C8166 or Molt4/C8 giant (syncytium) cell formation was examined microscopically.

[14] = system: HIV-2 (EHO); details: read-out: EC50 CEM/0 HIV-2 (EHO); CEM/0 cells
Experimental: as §2

[15] = system: HIV-2 (RF); details: read-out: EC50 CEM/0 HIV-2 (RF); CEM/0 cells
Experimental: as §2

[16] = system: HIV-1(HE); assay: Inhibition of HIV-1 (HE)-induced cytopathicity in MOLT4/C8 cells; assay type: cell-based
[17] = system: HIV-1 (HE); assay: Inhibition of HIV-1 (HE)-induced cytopathicity in CEM/0 cells; assay type: cell-based
[18] = system: FCK cells; details: read-out: CC50 FCK; FCK cells
[19] = system: FCV; assay: Feline corona virus assay in Feline Crandel kidney cells (MTS); assay type: cell-based; details: FCV in FCK cells; read-out: EC50 FCV
Experimental: Feline Crandel kidney cells were seeded in 96-well microtiter plates at 24,000 cells/well. Then, 24 hrs later, an appropriate inoculum of FCV is added together with 5-fold dilutions of the test compounds. After 4 days, a MTS/PMS solution was added to each well. Following a 90 min incubation period at 37° C., the optical density of the wells was read at 498 nm in a microplate reader.

[20] = system: HEL cells; details: read-out: CC50 (HEL); HEL cells; anti-VZV table
[21] = system: HEL cells; details: anti-VZV table
[22] = system: VZV (wild-type strains); assay: Anti-VZV assay (wild-type strains): virus-induced cytopathicity in HEL cell cultures; assay type: cell-based, varicella-zoster virus; details: for EC50: VZV strain OKA, HEL cell cultures, read-out: EC50 VZV (OKA)
[23] = system: HIV-1 (IIIB); assay: Inhibition of HIV-1 (IIIB)-induced cytopathicity in C8166 cells; assay type: cell-based
[24] = read-out: EC50 HIV-1 (concentration required to inhibit HIV-induced giant cell formation by 50%), HIV-1, CEM cell cultures
[25] = CEM cultures, wild type in mutant panel, read-out: EC50 HIV-1 IIIB
[26] = CEM/0 cells, read-out: EC50 CEM/0 HIV-1 (IIIB)

SMILES | IC50 [1] | IC50 [2] | EC50 [3] | EC50 [4, 24] | IC50 [5] | selection of resistant virus strains [6] | EC50 [7] | EC50 [8] | CC50 [9] | EC50 [10] | EC50 [11] | EC50 [12] | EC50 [13] | EC50 [14] | EC50 [15] | EC50 [16] | EC50 [17] | EC50 [4, 25] | EC50 [4, 26] | CC50 [18] | also measured
CCCCCCCCCCNCc1c(O)cc2c(c1O)-c1cc(ccc1O)C1NC(=O)C3NC(=O)C4NC(=O)C(Cc5ccc(c(Cl)c5)Oc5cc3cc(c5O)Oc3ccc(cc3Cl)C(O)C(NC1=O)C(=O)NC2C(=O)NCCCN(C)C)NC(=O)C(N)c1ccc(O)c(c1)Oc1cc(O)cc4c1 (centres unmarked) [Compound 15] | 48 ± 8 µM | > 100 µM | 6 ± 3.9 µM | 1.4 ± 0.6 µM | > 100 µM | failed | – | – | – | – | – | – | – | – | – | – | – | – | – | – | –
Cc1ccnc2c1NC(=O)c1cccnc1N2C1CC1 [nevirapine, reference compound] | – | – | – | – | – | easily resulted in the emergence | – | – | – | – | – | – | – | – | – | – | – | – | – | – | –
CNC(=O)C1NC(=O)C2NC(=O)C(NC(=O)C3NC(=O)C4NC(=O)C(Cc5ccc(c(Cl)c5)Oc5cc3cc(c5O)Oc3ccc(cc3Cl)C2O)NC(=O)C(N)c2ccc(O)c(c2)Oc2cc(O)cc4c2)c2ccc(O)c(c2)-c2c1cc(O)c(CNC1C3CC4CC(C3)CC1C4)c2O (centres unmarked) [Compound 51] | 212 ± 54 µM | > 250 µM | 17 ± 3.5 µM | 5 ± 1.4 µM | > 250 µM | – | 9.5 ± 2.1 µM | 24 ± 6.3 µM | > 100 µM | 25 ± 7.1 µM | 39 µM | 12 µM | 11 ± 6.4 µM | 13 ± 6.6 µM | 9 ± 4.2 µM | 25 ± 5 µM | 40 µM | 5 ± 1.4 µM | 5 ± 1.4 µM | ≥ 100 µM | EC50 [19]: 15 µM
CCCCc1ccc(CNCC(=O)N2CCN(C(=O)C3NC(=O)C4NC(=O)C(NC(=O)C5NC(=O)C6NC(=O)C(Cc7ccc(c(Cl)c7)Oc7cc5cc(c7O)Oc5ccc(cc5Cl)C4O)NC(=O)C(N)c4ccc(O)c(c4)Oc4cc(O)cc6c4)c4ccc(O)c(c4)-c4c(O)cc(O)cc43)CC2)cc1 (centres unmarked) [Compound 46] | > 100 µM | > 100 µM | 7 ± 4.2 µM | 4 µM | > 100 µM | – | 8 µM | – | – | 9 ± 1.4 µM | – | 17 ± 4.2 µM | – | 35 ± 7.1 µM | 10 µM | 6.5 ± 4.3 µM | 35 ± 7.1 µM | 4 µM | 4 µM | – | CC50 [20]: > 50 µM; MTC (HEL) [21]: 20 to 80 µM; EC50 [22]: 0.81 µM
CCCCc1ccc(CN2CCN(Cc3c(O)cc4c(c3O)-c3cc(ccc3O)C3NC(=O)C5NC(=O)C6NC(=O)C(Cc7ccc(c(Cl)c7)Oc7cc5cc(c7O)Oc5ccc(cc5Cl)C(O)C(NC3=O)C(=O)NC4C(=O)NCCCN(C)C)NC(=O)C(N)c3ccc(O)c(c3)Oc3cc(O)cc6c3)CC2)cc1 (centres unmarked) [Compound 30] | 29 ± 7 µM | > 500 µM | 5 ± 1.4 µM | 3 µM | 108 ± 79 µM | – | – | 6 ± 1.4 µM | > 100 µM | 7 µM | 33 µM | – | 7.5 ± 0.7 µM | 11 ± 1.4 µM | 3.7 ± 1.25 µM | 4.5 ± 0.7 µM | 5.5 ± 0.7 µM | 2.8 ± 0.4 µM | 2.8 ± 0.4 µM | ≥ 50 µM | EC50 [23]: ≥ 5 µM; EC50 [19]: 9.2 µM
CNC(CC(C)C)C(=O)NC1C(=O)NC(CC(N)=O)C(=O)NC2C(=O)NC3C(=O)NC(C(=O)NC(C(=O)O)c4cc(O)c(CN5CCN(Cc6ccc(-c7ccccc7)cc6)CC5)c(O)c4-c4cc3ccc4O)C(O)c3ccc(cc3)Oc3cc2cc(c3O)Oc2ccc(cc2Cl)C1O (centres unmarked) [Compound 6] | 250 ± 39 µM | > 500 µM | 12 ± 3.5 µM | 5.5 ± 0.7 µM | > 500 µM | – | – | – | – | 20 µM | – | 11 ± 1.4 µM | – | 50 µM | 16 ± 5.7 µM | 22 ± 2.9 µM | 40 µM | 5.5 ± 0.7 µM | 5.5 ± 0.7 µM | – | CC50 [20]: > 50 µM; MTC (HEL) [21]: ≧20-200 μM; activity against VZV [22]: pronounced activity; EC50 [22]: 4.2 µM
